Where two headings read alike, the source gives them in different places.
Key:
Assay type in all cases: cell-based
BT-549 = assay: CellTiter-Glo Viability Assay, breast cancer; conditions: Homo sapiens, 96 h; BT-549, breast cancer, four days; read-out: EC50
CAMA1 = assay: CellTiter-Glo Viability Assay, breast cancer; conditions: Homo sapiens, CAMA-1, 96 h; CAMA1, breast cancer, four days; read-out: EC50
DU4475 = assay: CellTiter-Glo Viability Assay, breast cancer; conditions: Homo sapiens, DU-4475, 96 h; DU4475, breast cancer, four days; read-out: EC50
HCC1599 = assay: CellTiter-Glo Viability Assay, breast cancer; conditions: Homo sapiens, 96 h; HCC1599, breast cancer, four days; read-out: EC50
MCF7 = assay: CellTiter-Glo Viability Assay, breast cancer; conditions: Homo sapiens, 96 h; MCF7, breast cancer, four days; read-out: EC50
MDA-MB-231-Luc = assay: CellTiter-Glo Viability Assay, breast cancer; conditions: Homo sapiens, 96 h; MDA-MB-231-Luc, breast cancer, four days; read-out: EC50
T47D = assay: CellTiter-Glo Viability Assay, breast cancer; conditions: Homo sapiens, 96 h, breast cancer, four days, read-out: EC50
ZR-75-1 = assay: CellTiter-Glo Viability Assay, breast cancer; conditions: Homo sapiens, 96 h; ZR-75-1, breast cancer, four days; read-out: EC50
all 50 cell lines = assay: CellTiter-Glo Viability Assay, average across all cell lines; conditions: Homo sapiens; across all 50 cell lines; read-out: average EC50 for inhibition of cancer cell proliferation
Summary of the method: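 Human cancer cell lines from breast, colorectal, haematopoietic/lymphoid, liver, lung, ovarian, pancreatic and prostate tumours were seeded at 300-3,000 cells/well and exposed to compound in duplicate for four days at 37° C, 5% CO2. Viable cells were measured by ATP luminescence; EC50 values came from dose-response curves.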

[1] = system: colorectal cancer (6 cell lines); assay: CellTiter-Glo Viability Assay, colorectal cancer; conditions: Homo sapiens, inhibition of cancer cell proliferation
[2] = system: haematopoietic & lymphoid tumors (13 cell lines); assay: CellTiter-Glo Viability Assay, haematopoietic & lymphoid tumors; conditions: Homo sapiens, inhibition of cancer cell proliferation
[3] = system: liver cancer (3 cell lines); assay: CellTiter-Glo Viability Assay, liver cancer; conditions: Homo sapiens, inhibition of cancer cell proliferation
[4] = system: lung cancer (4 cell lines); assay: CellTiter-Glo Viability Assay, lung cancer; conditions: Homo sapiens, inhibition of cancer cell proliferation
[5] = system: ovarian cancer (4 cell lines); assay: CellTiter-Glo Viability Assay, ovarian cancer; conditions: Homo sapiens, inhibition of cancer cell proliferation
[6] = system: pancreatic cancer (8 cell lines); assay: CellTiter-Glo Viability Assay, pancreatic cancer; conditions: Homo sapiens, inhibition of cancer cell proliferation
[7] = system: prostate cancer (5 cell lines); assay: CellTiter-Glo Viability Assay, prostate cancer; conditions: Homo sapiens

EC50 (BT-549): 5.51 µM
EC50 (CAMA1): 8.71 µM
EC50 (DU4475): 6.04 µM
EC50 (HCC1599): 0.312 µM
EC50 (MCF7): > 10 µM
EC50 (MDA-MB-231-Luc): > 10 µM
EC50 (T47D): 0.867 µM
EC50 (ZR-75-1): > 10 µM
EC50 ([1]; HCT-116, HCT116 cell line, read-out: Colorectal cancer, EC50 (μM) HCT116): 6.22 µM
EC50 ([1]; HT-29, HT29 cell line, read-out: Colorectal cancer, EC50 (μM) HT29): > 10 µM
EC50 ([1]; SW-620, SW620 cell line, read-out: Colorectal cancer, EC50 (μM) SW620): 5.35 µM
EC50 ([1]; DLD-1 cell line, read-out: Colorectal cancer, EC50 (μM) DLD-1): 2.53 µM
EC50 ([1]; SW48 cell line, read-out: Colorectal cancer, EC50 (μM) SW48): 1.87 µM
EC50 ([1]; SW480 cell line, read-out: Colorectal cancer, EC50 (μM) SW480): > 10 µM
EC50 ([2]; DND41, DND-41 cell line, read-out: Haematopoietic & Lymphoid tumors, EC50 (μM) DND-41): > 10 µM
EC50 ([2]; MV4-11, MV-4-11 cell line, read-out: Haematopoietic & Lymphoid tumors, EC50 (μM) MV-4-11): 0.675 µM
EC50 ([2]; Rec1, REC-1 cell line, read-out: Haematopoietic & Lymphoid tumors, EC50 (μM) REC-1): 2.25 µM
EC50 ([2]; SU-DHL-4, SUDHL4 cell line, read-out: Haematopoietic & Lymphoid tumors, EC50 (μM) SUDHL4): 4.87 µM
EC50 ([2]; HL-60 cell line, read-out: Haematopoietic & Lymphoid tumors, EC50 (μM) HL-60): 7.97 µM
EC50 ([2]; JM1 cell line, read-out: Haematopoietic & Lymphoid tumors, EC50 (μM) JM1): 3.24 µM
EC50 ([2]; JURKAT, Clone E6-1 cell line, read-out: Haematopoietic & Lymphoid tumors, EC50 (μM) JURKAT, Clone E6-1): 3.81 µM
EC50 ([2]; JeKo-1 cell line, read-out: Haematopoietic & Lymphoid tumors, EC50 (μM) JeKo-1): 2.18 µM
EC50 ([2]; KASUMI-1 cell line, read-out: Haematopoietic & Lymphoid tumors, EC50 (μM) KASUMI-1): 1.63 µM
EC50 ([2]; Loucy cell line, read-out: Haematopoietic & Lymphoid tumors, EC50 (μM) Loucy): 3.96 µM
EC50 ([2]; MOLT-4 cell line, read-out: Haematopoietic & Lymphoid tumors, EC50 (μM) MOLT-4): 6.76 µM
EC50 ([2]; TF-1 cell line, read-out: Haematopoietic & Lymphoid tumors, EC50 (μM) TF-1): 6.97 µM
EC50 ([2]; TOLEDO cell line, read-out: Haematopoietic & Lymphoid tumors, EC50 (μM) TOLEDO): 2.51 µM
EC50 ([3]; SNU-398, SNU398 cell line, read-out: Liver cancer, EC50 SNU398): 4.92 µM
EC50 ([3]; HEPG2 cell line, read-out: Liver cancer, EC50 HEPG2): > 10 µM
EC50 ([3]; PLC/PRF/5 cell line, read-out: Liver cancer, EC50 PLC/PRF/5): > 10 µM
EC50 ([4]; A-427, A427 cell line, read-out: Lung cancer, EC50 (μM) A427): 8.56 µM
EC50 ([4]; HCC78, HCC-78 cell line, read-out: Lung cancer, EC50 (μM) HCC-78): > 10 µM
EC50 ([4]; NCI-H460 cell line, read-out: Lung cancer, EC50 (μM) NCI-H460): > 10 µM
EC50 ([4]; NCI-H522 cell line, read-out: Lung cancer, EC50 (μM) NCI-H522): 7.15 µM
EC50 ([5]; PA-1, PA1 cell line, read-out: Ovarian cancer, EC50 (μM) PA1): 9.92 µM
EC50 ([5]; TOV112D, TOV-112D cell line, read-out: Ovarian cancer, EC50 (μM) TOV-112D): 7.05 µM
EC50 ([5]; OV-90 cell line, read-out: Ovarian cancer, EC50 (μM) OV-90): > 10 µM
EC50 ([5]; OVCAR-3 cell line, read-out: Ovarian cancer, EC50 (μM) OVCAR-3): 8.42 µM
EC50 ([6]; BXPC-3, BxPC3 cell line, read-out: Pancreatic cancer, EC50 BxPC3): > 10 µM
EC50 ([6]; CAPAN-1, Capan1 cell line, read-out: Pancreatic cancer, EC50 Capan1): > 10 µM
EC50 ([6]; Capan-2, Capan2 cell line, read-out: Pancreatic cancer, EC50 Capan2): > 10 µM
EC50 ([6]; MIA PaCa-2 cell line, read-out: Pancreatic cancer, EC50 MIA PaCa-2): 5.86 µM
EC50 ([6]; PANC 05.04 cell line, read-out: Pancreatic cancer, EC50 PANC 05.04): > 10 µM
EC50 ([6]; PANC-1 cell line, read-out: Pancreatic cancer, EC50 PANC-1): > 10 µM
EC50 ([6]; UPAFII cell line, read-out: Pancreatic cancer, EC50 UPAFII): > 10 µM
EC50 ([7]; DU-145, read-out: Prostate cancer EC50 Du-145): > 10 µM
EC50 ([7]; PC-3, PC3 cell line, inhibition of cancer cell proliferation, read-out: Prostate cancer EC50 PC3): > 10 µM
EC50 ([7]; 22Rv1 cell line, inhibition of cancer cell proliferation, read-out: Prostate cancer EC50 22Rv1): 0.867 µM
EC50 ([7]; LNCap clone FGC cell line, inhibition of cancer cell proliferation, read-out: Prostate cancer EC50 LNCap clone FGC): 9.15 µM
EC50 ([7]; VCaP (Sigma) cell line, inhibition of cancer cell proliferation, read-out: Prostate cancer EC50 VCaP (Sigma)): 5.58 µM
Structure (SMILES): O=C(Nc1ccc(OCCN2CCCC2)cc1)c1n[nH]cc1/C=C/c1cccnc1 [Compound 92]
EC50 (all 50 cell lines): 6.83 µM

From patent US20220062240A1, “METHODS OF TREATING CANCER USING A CLK INHIBITOR” (BioSplice Therapeutics, Inc., priority 2018, published 2022)
